Results as given in US9958439B2, “Carbohydrate detection” (RICHTER LIFE SCIENCE DEVELOPMENT AB, priority 2012, dated 2018).
Like-named read-outs stand apart in the source and are kept apart here.

How the values were obtained:
[1] = for RFU change (Correlation analysis) / RFU change (Signal deviation with increasing [Carbohydrate]) / λmax change: 3 μM probe; for RFU change (Correlation analysis): probe-specific excitation λ, emission 545 nm; for RFU change (Signal deviation with increasing [Carbohydrate]) / λmax change: spectral analysis, Excitation 300-500, Emission 545; for carbohydrate can be detected and/or differentiated by the LCO: conclusion from change in signal magnitude and/or shift in λmax; for Gradient Parameters (gradient of regression line) / Linear relationship / Quality of Gradient: linear regression
Procedure, shortened: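 Each LCO probe at 3 μM was added to two-fold serial dilutions of carbohydrate in dH2O (10–0.039 mg/ml for β-1,3-glucan, cellulose, chitin; 5–0.019 mg/ml for the others), run in triplicate. Excitation spectra were scanned 300–500 nm with emission at 545 nm. Detection was a reproducible λmax and/or RFU shift versus negative control, with linear regression of RFU against concentration.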

[2] = Procedure, shortened: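 LCO probes (3 μM) were added to serial two-fold dilutions of carbohydrate suspensions in dH2O, with excitation scanned 300–500 nm and emission at 545 nm. Detection was a reproducible λmax and/or RFU change versus no-carbohydrate control. RFU was regressed linearly against concentration at the λmax or the lowest-background excitation.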
[3] = for RFU change (Correlation analysis): probe-specific excitation λ, emission 545 nm
Procedure, shortened: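 LCO probes at 3 μM mixed with serial two-fold dilutions of carbohydrate in dH2O (10–0.039 or 5–0.019 mg/ml, depending on carbohydrate), in triplicate. Excitation scanned 300–500 nm or fixed per probe (λmax or lowest background), emission at 545 nm. Detection taken as reproducible λmax/RFU shift vs no-carbohydrate control; RFU regressed linearly on concentration.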

[4] = remark: listed apart in the source
Procedure, shortened: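 LCO probes at 3 μM mixed with serial two-fold carbohydrate dilutions in water (10–0.039 or 5–0.019 mg/ml), run in triplicate. Excitation scanned 300–500 nm with emission at 545 nm; detection based on reproducible λmax or RFU shift against the no-carbohydrate control, with linear regression of RFU on concentration.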

[5] = for RFU change (Correlation analysis): probe-specific excitation λ, emission 545 nm; for Gradient Parameters (gradient of regression line) / Linear relationship / Quality of Gradient: linear regression
Procedure, shortened: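 LCO probes at 3 μM mixed with serial twofold carbohydrate dilutions in dH2O (10–0.039 or 5–0.019 mg/ml, depending on carbohydrate). Excitation scanned 300–500 nm, emission read at 545 nm; detection defined as reproducible shift in λmax and/or RFU relative to negative control, with linear regression of RFU against concentration.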

[6] = remark: listed apart in the source
Procedure, shortened: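 3 μM of each LCO probe was added to serial two-fold carbohydrate dilutions in water (10–0.039 or 5–0.019 mg/ml). Excitation spectra were scanned 300–500 nm with emission at 545 nm, in triplicate. Detection was defined as a reproducible shift in λmax and/or RFU versus negative control, with linear regression of RFU against concentration.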

[7] = β-1,3-glucan concentration vs RFU
[8] = sodium alginate concentration vs RFU, linear regression
[9] = Cellulobiose 5-0.019 mg/ml, 3 μM probe, spectral analysis, Excitation 300-500, Emission 545
[10] = amylose concentration vs RFU, linear regression
[11] = cellulobiose concentration vs RFU, linear regression
[12] = glucose concentration vs RFU, linear regression
[13] = Glycogen 5-0.019 mg/ml, 3 μM probe, spectral analysis, Excitation 300-500, Emission 545
[14] = Chondroitin Sulfate A 5-0.019 mg/ml, 3 μM probe, spectral analysis, Excitation 300-500, Emission 545
[15] = Chondroitin Sulfate A concentration vs RFU, linear regression

Cl.Cl.O=C(Cc1cc(-c2cccs2)sc1-c1ccc(-c2sc(-c3cccs3)cc2CC(=O)NCCc2c[nH]cn2)s1)NCCc1c[nH]cn1 [pHTA-His, penta Hydrogen Thiophene Acetic acid Histidine]
RFU change (Correlation analysis) ([1]; Cellulose 10-[…]): Increase | RFU change (Signal deviation with increasing [Carbohydrate]) ([1]; Cellulose 10-[…]): Increase | λmax change ([1]; Cellulose 10-[…]): Redshift | carbohydrate can be detected and/or differentiated by the LCO ([1]; Cellulose): can be detected and/or differentiated | RFU change (Correlation analysis) ([1]; Chitin 10-[…]): Increases | RFU change (Signal deviation with increasing [Carbohydrate]) ([1]; Chitin 10-[…]): Increases | λmax change ([1]; Chitin 10-[…]): Redshift | carbohydrate can be detected and/or differentiated by the LCO ([1]; Chitin): can be detected and/or differentiated | Gradient Parameters (gradient of regression line) ([1]; cellulose concentration vs RFU): 725.9 ± 124.6 | Linear relationship ([1]; cellulose concentration vs RFU): Significant | Quality of Gradient ([1]; cellulose concentration vs RFU): Positive | Gradient Parameters (gradient of regression line) ([1]; chitin concentration vs RFU): 117.2 ± 25.7 | Linear relationship ([1]; chitin concentration vs RFU): Significant | Quality of Gradient ([1]; chitin concentration vs RFU): Positive | Sensitivity ([1]; to cellulose): Yes | Sensitivity ([1]; to chitin): Yes | Sensitivity ([1]; to β-1,3-glucan): No | RFU change (Correlation analysis) ([1]; β-1,3-glucan 10-[…]): Unclear | RFU change (Signal deviation with increasing [Carbohydrate]) ([1]; β-1,3-glucan 10-[…]): Unclear | Gradient Parameters (gradient of regression line) [1, 7]: −7.071 ± 34 | Quality of Gradient [1, 7]: Horizontal | RFU change (Correlation analysis) ([2]; Sodium alginate 5-0.019 mg/ml, 3 μM probe, probe-specific excitation λ, emission 545 nm): Increases | RFU change (Signal deviation with increasing [Carbohydrate]) ([2]; Sodium alginate 5-0.019 mg/ml, 3 μM probe, spectral analysis, Excitation 300-500, Emission 545): Increases | carbohydrate can be detected and/or differentiated by the LCO ([2]; Sodium alginate, conclusion from change in signal magnitude and/or shift in λmax): can be detected and/or differentiated | Gradient Parameters (gradient of regression line) [2, 8]: 199.9 ± 36.3 | Linear relationship [2, 8]: Significant | Quality of Gradient [2, 8]: Positive | Sensitivity ([2]; to sodium alginate): Yes | RFU change (Correlation analysis) ([3]; Amylose 5-0.019 mg/ml, 3 μM probe): Decreases | RFU change (Signal deviation with increasing [Carbohydrate]) ([3]; Amylose 5-0.019 mg/ml, 3 μM probe, spectral analysis, Excitation 300-500, Emission 545): Decreases | carbohydrate can be detected and/or differentiated by the LCO ([3]; Amylose, conclusion from change in signal magnitude and/or shift in λmax): can be detected and/or differentiated | RFU change (Correlation analysis) ([3]; Cellulobiose 5-0.019 mg/ml, 3 μM probe): Unclear | RFU change (Signal deviation with increasing [Carbohydrate]) [3, 9]: Unclear | λmax change [3, 9]: No change | Gradient Parameters (gradient of regression line) [3, 10]: −341.5 ± 47.3 | Linear relationship [3, 10]: Significant | Quality of Gradient [3, 10]: Negative | Gradient Parameters (gradient of regression line) [3, 11]: −5.26 ± 4.87 | Quality of Gradient [3, 11]: Horizontal | Sensitivity ([3]; to amylose): Yes | Sensitivity ([3]; to cellulobiose): No | RFU change (Correlation analysis) ([4]; Glucose 5-0.019 mg/ml, 3 μM probe, probe-specific excitation λ, emission 545 nm): Unclear | RFU change (Signal deviation with increasing [Carbohydrate]) ([4]; Glucose 5-0.019 mg/ml, 3 μM probe, spectral analysis, Excitation 300-500, Emission 545): Increases | Gradient Parameters (gradient of regression line) [4, 12]: 33.2 ± 25.2 | Quality of Gradient [4, 12]: Horizontal | Sensitivity ([4]; to glucose): No | RFU change (Correlation analysis) ([5]; Glycogen 5-0.019 mg/ml, 3 μM probe): Increases | RFU change (Signal deviation with increasing [Carbohydrate]) [5, 13]: Increases | λmax change [5, 13]: Redshift | carbohydrate can be detected and/or differentiated by the LCO ([5]; Glycogen, conclusion from change in signal magnitude and/or shift in λmax): can be detected and/or differentiated | RFU change (Correlation analysis) ([5]; Heparin 5-0.019 mg/ml, 3 μM probe): Unclear | RFU change (Signal deviation with increasing [Carbohydrate]) ([5]; Heparin 5-0.019 mg/ml, 3 μM probe, spectral analysis, Excitation 300-500, Emission 545): Decreases | Gradient Parameters (gradient of regression line) ([5]; glycogen concentration vs RFU): 130.6 ± 55.6 | Linear relationship ([5]; glycogen concentration vs RFU): Significant | Quality of Gradient ([5]; glycogen concentration vs RFU): Positive | Gradient Parameters (gradient of regression line) ([5]; heparin concentration vs RFU): 26.3 ± 18.5 | Linear relationship ([5]; heparin concentration vs RFU): Not Significant | Quality of Gradient ([5]; heparin concentration vs RFU): Horizontal | Sensitivity ([5]; to glycogen): Yes | Sensitivity ([5]; to heparin): No | RFU change (Correlation analysis) ([6]; Chondroitin Sulfate A 5-0.019 mg/ml, 3 μM probe, probe-specific excitation λ, emission 545 nm): Increases | RFU change (Signal deviation with increasing [Carbohydrate]) [6, 14]: Increases | λmax change [6, 14]: Blueshift | Gradient Parameters (gradient of regression line) [6, 15]: 163.8 ± 20.77 | Linear relationship [6, 15]: Significant | Quality of Gradient [6, 15]: Positive | carbohydrate can be detected and/or differentiated by the LCO ([6]; Chondroitin sulfate A, conclusion from change in signal magnitude and/or shift in λmax): can be detected and/or differentiated | Sensitivity ([6]; to Chondroitin Sulfate A): Yes
